Experimental data published in ChEMBL document CHEMBL5528040, “Design and Synthesis of Novel 3-Nitro-1H-1,2,4-triazole-1,2,3-triazole-1,4-disubstituted Analogs as Promising Antitrypanosomatid Agents: Evaluation of In Vitro Activity against Chagas Disease and Leishmaniasis” (J Med Chem, 2024).

Experiments:
[1] = Mutagenicity in Salmonella typhimurium TA102 assessed as number of revertant colonies at 1500 ug per plate incubated for 90 mins by AMES test (reference value: 110.67 +/- 20.15); assay type: toxicity, Salmonella enterica subsp. enterica serovar Typhimurium; details: in vivo, 1.5 h, dose 1500 µg
[2] = Mutagenicity in Salmonella typhimurium TA98 assessed as number of revertant colonies at 50 ug per plate incubated for 90 mins by AMES test (reference value: 22.67 +/- 0.58); assay type: toxicity, Salmonella enterica subsp. enterica serovar Typhimurium; details: in vivo, 1.5 h, dose 50 µg
[3] = Mutagenicity in Salmonella typhimurium TA98 assessed as number of revertant colonies at 1500 ug per plate incubated for 90 mins by AMES test (reference value: 22.67 +/- 0.58); assay type: toxicity, Salmonella enterica subsp. enterica serovar Typhimurium; details: in vivo, 1.5 h, dose 1500 µg
[4] = Mutagenicity in Salmonella typhimurium TA102 assessed as mutagenic index ratio at 150 ug per plate incubated for 90 mins by AMES test; assay type: toxicity, Salmonella enterica subsp. enterica serovar Typhimurium; details: in vivo, 1.5 h, dose 150 µg
[5] = Mutagenicity in Salmonella typhimurium TA100 assessed as mutagenic index ratio at 50 ug per plate incubated for 90 mins by AMES test; assay type: toxicity, Salmonella enterica subsp. enterica serovar Typhimurium; details: in vivo, 1.5 h, dose 50 µg
[6] = Mutagenicity in Salmonella typhimurium TA98 assessed as mutagenic index ratio at 1500 ug per plate incubated for 90 mins by AMES test; assay type: toxicity, Salmonella enterica subsp. enterica serovar Typhimurium; details: in vivo, 1.5 h, dose 1500 µg
[7] = Mutagenicity in Salmonella typhimurium TA102 assessed as mutagenic index ratio at 500 ug per plate incubated for 90 mins in presence of S9 fraction by AMES test; assay type: toxicity, subcellular, Salmonella enterica subsp. enterica serovar Typhimurium; details: s9, 1.5 h, dose 500 µg
[8] = Mutagenicity in Salmonella typhimurium TA102 assessed as mutagenic index ratio at 1500 ug per plate incubated for 90 mins in presence of S9 fraction by AMES test; assay type: toxicity, subcellular, Salmonella enterica subsp. enterica serovar Typhimurium; details: s9, 1.5 h, dose 1500 µg
[9] = Mutagenicity in Salmonella typhimurium TA100 assessed as number of revertant colonies at 150 ug per plate incubated for 90 mins by AMES test (reference value: 88.00 +/- 2.65); assay type: toxicity, Salmonella enterica subsp. enterica serovar Typhimurium; details: in vivo, 1.5 h, dose 150 µg
[10] = Mutagenicity in Salmonella typhimurium TA102 assessed as number of revertant colonies at 50 ug per plate incubated for 90 mins by AMES test (reference value: 110.67 +/- 20.15); assay type: toxicity, Salmonella enterica subsp. enterica serovar Typhimurium; details: in vivo, 1.5 h, dose 50 µg
[11] = Mutagenicity in Salmonella typhimurium TA100 assessed as mutagenic index ratio at 5000 ug per plate incubated for 90 mins in presence of S9 fraction by AMES test; assay type: toxicity, subcellular, Salmonella enterica subsp. enterica serovar Typhimurium; details: s9, 1.5 h, dose 5000 µg
[12] = Mutagenicity in Salmonella typhimurium TA102 assessed as number of revertant colonies at 500 ug per plate incubated for 90 mins in presence of S9 fraction by AMES test (reference value: 130.00 +/- 6.93); assay type: toxicity, subcellular, Salmonella enterica subsp. enterica serovar Typhimurium; details: s9, 1.5 h, dose 500 µg
[13] = Cytotoxicity against monkey LLC-MK2 cells incubated for 72 hrs by MTT assay; assay type: toxicity, cell-based, Macaca mulatta; details: rhesus monkey
[14] = Mutagenicity in Salmonella typhimurium TA100 assessed as number of revertant colonies at 500 ug per plate incubated for 90 mins by AMES test (reference value: 88.00 +/- 2.65); assay type: toxicity, Salmonella enterica subsp. enterica serovar Typhimurium; details: in vivo, 1.5 h, dose 500 µg
[15] = Mutagenicity in Salmonella typhimurium TA100 assessed as number of revertant colonies at 1500 ug per plate incubated for 90 mins in presence of S9 fraction by AMES test (reference value: 122.67 +/- 5.03); assay type: toxicity, subcellular, Salmonella enterica subsp. enterica serovar Typhimurium; details: s9, 1.5 h, dose 1500 µg
[16] = Mutagenicity in Salmonella typhimurium TA98 assessed as mutagenic index ratio at 500 ug per plate incubated for 90 mins by AMES test; assay type: toxicity, Salmonella enterica subsp. enterica serovar Typhimurium; details: in vivo, 1.5 h, dose 500 µg
[17] = Mutagenicity in Salmonella typhimurium TA100 assessed as mutagenic index ratio at 500 ug per plate incubated for 90 mins by AMES test; assay type: toxicity, Salmonella enterica subsp. enterica serovar Typhimurium; details: in vivo, 1.5 h, dose 500 µg
[18] = Mutagenicity in Salmonella typhimurium TA102 assessed as mutagenic index ratio at 5000 ug per plate incubated for 90 mins by AMES test; assay type: toxicity, Salmonella enterica subsp. enterica serovar Typhimurium; details: in vivo, 1.5 h, dose 5000 µg
[19] = Mutagenicity in Salmonella typhimurium TA98 assessed as mutagenic index ratio at 150 ug per plate incubated for 90 mins in presence of S9 fraction by AMES test; assay type: toxicity, subcellular, Salmonella enterica subsp. enterica serovar Typhimurium; details: s9, 1.5 h, dose 150 µg
[20] = Mutagenicity in Salmonella typhimurium TA102 assessed as mutagenic index ratio at 1500 ug per plate incubated for 90 mins by AMES test; assay type: toxicity, Salmonella enterica subsp. enterica serovar Typhimurium; details: in vivo, 1.5 h, dose 1500 µg
[21] = Mutagenicity in Salmonella typhimurium TA98 assessed as number of revertant colonies at 5000 ug per plate incubated for 90 mins in presence of S9 fraction by AMES test (reference value: 21.00 +/- 1.00); assay type: toxicity, subcellular, Salmonella enterica subsp. enterica serovar Typhimurium; details: s9, 1.5 h, dose 5000 µg
[22] = Mutagenicity in Salmonella typhimurium TA100 assessed as number of revertant colonies at 50 ug per plate incubated for 90 mins by AMES test (reference value: 88.00 +/- 2.65); assay type: toxicity, Salmonella enterica subsp. enterica serovar Typhimurium; details: in vivo, 1.5 h, dose 50 µg
[23] = Mutagenicity in Salmonella typhimurium TA102 assessed as number of revertant colonies at 5000 ug per plate incubated for 90 mins by AMES test (reference value: 110.67 +/- 20.15); assay type: toxicity, Salmonella enterica subsp. enterica serovar Typhimurium; details: in vivo, 1.5 h, dose 5000 µg
[24] = Mutagenicity in Salmonella typhimurium TA102 assessed as number of revertant colonies at 5000 ug per plate incubated for 90 mins in presence of S9 fraction by AMES test (reference value: 130.00 +/- 6.93); assay type: toxicity, subcellular, Salmonella enterica subsp. enterica serovar Typhimurium; details: s9, 1.5 h, dose 5000 µg
[25] = Mutagenicity in Salmonella typhimurium TA102 assessed as mutagenic index ratio at 500 ug per plate incubated for 90 mins by AMES test; assay type: toxicity, Salmonella enterica subsp. enterica serovar Typhimurium; details: in vivo, 1.5 h, dose 500 µg
[26] = Mutagenicity in Salmonella typhimurium TA98 assessed as mutagenic index ratio at 50 ug per plate incubated for 90 mins in presence of S9 fraction by AMES test; assay type: toxicity, subcellular, Salmonella enterica subsp. enterica serovar Typhimurium; details: s9, 1.5 h, dose 50 µg
Trypanosoma cruzi = assay: Antitrypanosomal activity against Trypanosoma cruzi Tulahuen amastigotes transfected with Escherichia coli beta-galactosidase LacZ gene infected in monkey LLC-MK2 cells assessed as inhibition of amastigotes growth incubated for 72 hrs by absorbance based microplate reader analysis; assay type: functional, organism-based; details: LLC-MK2, 72 h
[27] = Mutagenicity in Salmonella typhimurium TA102 assessed as mutagenic index ratio at 5000 ug per plate incubated for 90 mins in presence of S9 fraction by AMES test; assay type: toxicity, subcellular, Salmonella enterica subsp. enterica serovar Typhimurium; details: s9, 1.5 h, dose 5000 µg
[28] = Mutagenicity in Salmonella typhimurium TA100 assessed as mutagenic index ratio at 50 ug per plate incubated for 90 mins in presence of S9 fraction by AMES test; assay type: toxicity, subcellular, Salmonella enterica subsp. enterica serovar Typhimurium; details: s9, 1.5 h, dose 50 µg
[29] = Mutagenicity in Salmonella typhimurium TA98 assessed as mutagenic index ratio at 1500 ug per plate incubated for 90 mins in presence of S9 fraction by AMES test; assay type: toxicity, subcellular, Salmonella enterica subsp. enterica serovar Typhimurium; details: s9, 1.5 h, dose 1500 µg
Leishmania amazonensis = assay: Antileishmanial activity against Leishmania amazonensis IFLA/BR/1967/PH8 amastigotes infected in murine peritoneal macrophages incubated for 24 hrs by Giemsa staining based analysis; assay type: functional, organism-based; details: IFLA/BR/1967/PH8, Peritoneal macrophage
[30] = Mutagenicity in Salmonella typhimurium TA102 assessed as mutagenic index ratio at 50 ug per plate incubated for 90 mins in presence of S9 fraction by AMES test; assay type: toxicity, subcellular, Salmonella enterica subsp. enterica serovar Typhimurium; details: s9, 1.5 h, dose 50 µg
[31] = Mutagenicity in Salmonella typhimurium TA98 assessed as mutagenic index ratio at 150 ug per plate incubated for 90 mins by AMES test; assay type: toxicity, Salmonella enterica subsp. enterica serovar Typhimurium; details: in vivo, 1.5 h, dose 150 µg
[32] = Mutagenicity in Salmonella typhimurium TA100 assessed as number of revertant colonies at 5000 ug per plate incubated for 90 mins in presence of S9 fraction by AMES test (reference value: 122.67 +/- 5.03); assay type: toxicity, subcellular, Salmonella enterica subsp. enterica serovar Typhimurium; details: s9, 1.5 h, dose 5000 µg

For `O=[N+]([O-])c1ncn(Cc2cn(-c3ccc(OC(F)(F)F)cc3)nn2)n1`, the Activity [1] was 141, the Activity [2] was 18.33 and the Activity [3] was 20.33. It also gave a Ratio [4] of 1.4, a Ratio [5] of 1.1 and a Ratio [6] of 0.8. The Ratio [7] was 1.4, the Ratio [8] was 1.3 and the Activity [9] was 96. It also gave an Activity [10] of 215.33, a Ratio [11] of 0.3 and an Activity [12] of 190. The CC50 at 72 h [13] was > 50 µM, the Activity [14] was 83 and the Activity [15] was 98.33. The Ratio [16] was 0.9, the Ratio [17] was 0.9 and the Ratio [18] was 1.2. For the same compound, the Ratio [19] was 1.1, the Ratio [20] was 1.2 and the Activity [21] was 15.33. It also gave an Activity [22] of 104.33, an Activity [23] of 143.67 and an Activity [24] of 131. The Ratio [25] was 1.4, the Ratio [26] was 1 and the IC50 (Trypanosoma cruzi) was 90 nM. The Ratio [27] was 1, the Ratio [28] was 0.9 and the Ratio [29] was 1. It also gave an IC50 (Leishmania amazonensis) of 4.7 µM, a Ratio [30] of 0.2 and a Ratio [31] of 1. For the same compound, the Activity [32] was 47.
